Source: patent US8937077B2, “Bicyclic diamines as janus kinase inhibitors” (Merck Sharp & Dohme Corp., priority 2010, dated 2015)

These compounds were tested against T1, Jak1 (Homo sapiens, UniProt P23458) (assay: Jak Biochemical HTRF Assay (Jak1)). Conditions: IC50 class, recombinant GST-tagged catalytic domain, read-out: Jak1 activity.
T1 construct: using a recombinant purified GST-tagged catalytic domain for each enzyme; GST; purchased Invitrogen M4290
Text: Compounds of formula I can be prepared according to the general procedures described in the Schemes and Examples herein, using appropriate materials. Representative compounds of the present invention are exemplified herein below. The compounds exemplified are not, however, to be construed as limiting the scope of the invention in any manner. The examples further illustrate details for the preparation of the compounds of the present invention. Those skilled in the art will readily understand that known variations of protecting groups, of reagents, as well as of the conditions and processes of the following preparative procedures, can be used to prepare these compounds. It is also understood that whenever a chemical reagent is not commercially available, such a chemical reagent can be readily prepared by those skilled in the art by either following or adapting known methods described in the literature or described herein. Chiral analogs were prepared via incorporation of chiral reagents or obtained after chiral chromatography separation of a racemically generated analog. All temperatures are degrees Celsius unless otherwise noted. Mass spectra (MS) were measured either by electrospray ion-mass spectroscopy (ESMS) or by atmospheric pressure chemical ionization mass spectroscopy (APCI). Jak1 data were obtained using the in vitro assay described below.
Jak Biochemical HTRF Assay Protocol
The ability of compounds to inhibit the activity of Jak1, Jak2, Jak3, and Tyk2 was measured using a recombinant purified GST-tagged catalytic domain for each enzyme (Invitrogen Jak1 #M4290, […]) in an HTRF format biochemical assay. The reactions employed a common peptide substrate, LCB-EQEDEPEGDYFEWLW-NH2 (in-house). The basic assay protocol is as follows: First, […] of diluted compounds in DMSO were dispensed into the wells of a dry 384-well Black plate (Greiner #781076) using a Labcyte Echo 555 acoustic dispenser. Subsequent reagent additions employed an Agilent Bravo. Next, 18 μL, of 1.11X enzyme and 1.11X substrate in 1X assay buffer (Invitrogen kinase buffer #PV3189, 2 mM DTT, 0.05% BSA) were added to the wells and shaken and then preincubated for 30 minutes at room temperature to allow compound binding to equilibrate. After equilibration, 2 μL of 10X ATP in 1X assay buffer was added to initiate the kinase reaction and the plates were shaken and then incubated at room temperature for 120 minutes. At the end of the incubation, 20 μL of 2X stop buffer (streptavidin-Dylight (Thermo #21845), Eu-tagged pY20 antibody (Perkin Elmer #AD0067), EDTA, HEPES, and Triton) was added to quench the reaction. Plates were shaken and centrifuged and then incubated 60 minutes at room temperature and then read on a Perkin Elmer Envision (λex=337 nm, λem=665 and 615 nm, TRF delay time=20 μs). HTRF signal=10,000*665 nm reading/615 nm reading. After normalization to untreated controls, the percent inhibition of the HTRF signal at each compound concentration was calculated. The plot of percent inhibition versus the log of compound concentration was fit with a 4-parameter dose response equation to calculate IC50 values.

T1 sequence (P23458 875-1153 limits assumed): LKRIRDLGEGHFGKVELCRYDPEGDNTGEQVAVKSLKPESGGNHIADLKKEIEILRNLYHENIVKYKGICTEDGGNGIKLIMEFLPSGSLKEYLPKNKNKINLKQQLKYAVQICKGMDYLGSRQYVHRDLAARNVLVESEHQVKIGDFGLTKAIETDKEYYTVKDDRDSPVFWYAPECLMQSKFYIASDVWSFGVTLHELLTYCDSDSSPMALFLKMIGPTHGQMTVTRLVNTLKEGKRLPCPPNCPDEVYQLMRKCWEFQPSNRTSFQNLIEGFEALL

IC50 [nM]	Structure (SMILES)
10 to 100	O=C(c1c[nH]c2ccncc12)N1CCC[C@@H]2[C@H]1CCN2c1ncnc2[nH]ccc12 [Example 29-45, 4-[(3aR,7aR)-4-(1H-pyrrolo[3,2-c]pyridin-3-ylcarbonyl)octahydro-1H-pyrrolo[3,2-b]pyridin-1-yl]-7H-pyrrolo[2,3-d]pyrimidine]
100 to 1000	O=C(c1cccc(N2CCOCC2)c1)N1CCC[C@@H]2[C@H]1CCN2c1ncnc2[nH]ccc12 [Example 29-22, 4-{(3aR,7aR)-4-[(3-morpholin-4-ylphenyl)carbonyl]octahydro-1H-pyrrolo[3,2-b]pyridin-1-yl}-7H-pyrrolo[2,3-d]pyrimidine]
10 to 100	O=C(OCC1CCCCC1)N1CCC[C@@H]2[C@H]1CCN2c1ncnc2[nH]ccc12 [Example 3-46, cyclohexylmethyl (3aR,7aR)-1-(7H-pyrrolo[2,3-d]pyrimidin-4-yl)octahydro-4H-pyrrolo[3,2-b]pyridine-4-carboxylate]
10 to 100	O=C(OC1CCOCC1)N1CCCC2C1CCN2c1ncnc2[nH]ccc12 (stereo not shown) [Example 3-10, tetrahydro-2H-pyran-4-yl 1-(7H-pyrrolo[2,3-d]pyrimidin-4-yl)octahydro-4H-pyrrolo[3,2-b]pyridine-4-carboxylate]
10 to 100	O=C(C(O)c1ccccc1)N1CCC[C@@H]2[C@H]1CCN2c1ncnc2[nH]ccc12 (stereo partly drawn) [Example 29-46, 2-oxo-1-phenyl-2-[(3aR,7aR)-1-(7H-pyrrolo[2,3-d]pyrimidin-4-yl)octahydro-4H-pyrrolo[3,2-b]pyridin-4-yl]ethanol]
10 to 100	N#Cc1cccc(C(=O)N2CCC[C@@H]3[C@H]2CCN3c2ncnc3[nH]ccc23)c1 [Example 29-31, 3-{[(3aR,7aR)-1-(7H-pyrrolo[2,3-d]pyrimidin-4-yl)octahydro-4H-pyrrolo[3,2-b]pyridin-4-yl]carbonyl}benzonitrile]
1 to 10	O=C(OCc1ccccc1F)N1CCC[C@@H]2[C@H]1CCN2c1ncnc2[nH]ccc12 [Example 3-33, 2-fluorobenzyl (3aR,7aR)-1-(7H-pyrrolo[2,3-d]pyrimidin-4-yl)octahydro-4H-pyrrolo[3,2-b]pyridine-4-carboxylate]
10 to 100	CN(C)C(=O)N1CCC(C(=O)N2CCC[C@@H]3[C@H]2CCN3c2ncnc3[nH]ccc23)CC1 [Example 29-35, N,N-dimethyl-4-{[(3aR,7aR)-1-(7H-pyrrolo[2,3-d]pyrimidin-4-yl)octahydro-4H-pyrrolo[3,2-b]pyridin-4-yl]carbonyl}piperidine-1-carboxamide]
10 to 100	O=C(c1cccc2ccncc12)N1CCC[C@@H]2[C@H]1CCN2c1ncnc2[nH]ccc12 [Example 29-39, 8-{[(3aR,7aR)-1-(7H-pyrrolo[2,3-d]pyrimidin-4-yl)octahydro-4H-pyrrolo[3,2-b]pyridin-4-yl]carbonyl}isoquinoline]
10 to 100	O=C(C1COc2ccccc2O1)N1CCC[C@@H]2[C@H]1CCN2c1ncnc2[nH]ccc12 (stereo partly drawn) [Example 29-38, 4-[(3aR,7aR)-4-(2,3-dihydro-1,4-benzodioxin-2-ylcarbonyl)octahydro-1H-pyrrolo[3,2-b]pyridin-1-yl]-7H-pyrrolo[2,3-d]pyrimidine]
10 to 100	O=C(c1ccncc1)N1CCC[C@@H]2[C@H]1CCN2c1ncnc2[nH]ccc12 [Example 29-12, 4-[(3aR,7aR)-4-(pyridin-4-ylcarbonyl)octahydro-1H-pyrrolo[3,2-b]pyridin-1-yl]-7H-pyrrolo[2,3-d]pyrimidine]
10 to 100	COc1ccc(CC(=O)N2CCCC3C2CCN3c2ncnc3[nH]ccc23)cc1 (stereo not shown) [Example 29-4, 4-{4-[(4-methoxyphenyl)acetyl]octahydro-1H-pyrrolo[3,2-b]pyridin-1-yl}-7H-pyrrolo[2,3-d]pyrimidine]
10 to 100	Cc1cc2c(N3CCC4C3CCCN4C(=O)OCc3ccccc3)ncnc2[nH]1 [Example 15, (3aS,7aS and 3aR,7aR) benzyl 1-(6-methyl-7H-pyrrolo[2,3-d]pyrimidin-4-yl)octahydro-4H-pyrrolo[3,2-b]pyridine-4-carboxylate]
10 to 100	O=C(OCCn1ccc2ccccc21)N1CCC[C@@H]2[C@H]1CCN2c1ncnc2[nH]ccc12 [Example 3-45, 2-(1H-indol-1-yl)ethyl (3aR,7aR)-1-(7H-pyrrolo[2,3-d]pyrimidin-4-yl)octahydro-4H-pyrrolo[3,2-b]pyridine-4-carboxylate]
100 to 1000	O=S(=O)(N1CCC[C@@H]2[C@H]1CCN2c1ncnc2[nH]ccc12)C(F)(F)F (single isomer, unassigned) [Example 32-5]
100 to 1000	O=C(OCc1ccc(CO)cc1)N1CCC[C@@H]2[C@H]1CCN2c1ncnc2[nH]ccc12 [Example 10, 4-(hydroxymethyl)benzyl (3aR,7aR)-1-(7H-pyrrolo[2,3-d]pyrimidin-4-yl)octahydro-4H-pyrrolo[3,2-b]pyridine-4-carboxylate]
10 to 100	O=C(Cc1ccc(C(F)(F)F)cc1)N1CCCC2C1CCN2c1ncnc2[nH]ccc12 (stereo not shown) [Example 29-5, 4-(4-{[4-(trifluoromethyl)phenyl]acetyl}octahydro-1H-pyrrolo[3,2-b]pyridin-1-yl)-7H-pyrrolo[2,3-d]pyrimidine]
100 to 1000	O=C(c1cc2ccccn2c1)N1CCC[C@@H]2[C@H]1CCN2c1ncnc2[nH]ccc12 [Example 29-52, 4-[(3aR,7aR)-4-(indolizin-2-ylcarbonyl)octahydro-1H-pyrrolo[3,2-b]pyridin-1-yl]-7H-pyrrolo[2,3-d]pyrimidine]
100 to 1000	O=C(OC(CCN1CCOCC1)c1ccccc1)N1CCC[C@@H]2C1CCN2c1ncnc2[nH]ccc12 (mixture of isomers) [Example 8-3, (1R and 1S)-3-(morpholin-4-yl)-1-phenylpropyl (3aR,7aR)-1-(7H-pyrrolo[2,3-d]pyrimidin-4-yl)octahydro-4-pyrrolo[3,2-b]pyridine-4-carboxylate]
10 to 100	O=C(c1ccccc1)N1CCCC2C1CCN2c1ncnc2[nH]ccc12 (racemic) [Example 29-3, 4-[4-(phenylcarbonyl)octahydro-1H-pyrrolo[3,2-b]pyridin-1-yl]-7H-pyrrolo[2,3-d]-pyrimidine]
10 to 100	O=C(c1ccco1)N1CCC[C@@H]2[C@H]1CCN2c1ncnc2[nH]ccc12 [Example 29-9, 4-[(3 aR,7aR)-4-(furan-2-ylcarbonyl)octahydro-1H-pyrrolo[3,2-b]pyridin-1-yl]-7H-pyrrolo[2,3-d]pyrimidine]
10 to 100	N#CCC(=O)N1CCCC2C1CCN2c1ncnc2[nH]ccc12 [Example 12, (3aS,7aS and 3aR,7aR) 3-oxo-3-[1-(7H-pyrrolo[2,3-d]pyrimidin-4-yl)octahydro-4H-pyrrolo[3,2-b]pyridin-4-yl]propanenitrile]
10 to 100	O=C(OCc1cnccn1)N1CCCC2C1CCN2c1ncnc2[nH]ccc12 (stereo not shown) [Example 3-18, pyrazin-2-ylmethyl 1-(7H-pyrrolo[2,3-d]pyrimidin-4-yl)octahydro-4H-pyrrolo[3,2-b]-pyridine-4-carboxylate]
1 to 10	COc1ccc(COC(=O)N2CCCC3C2CCN3c2ncnc3[nH]ccc23)cc1 (stereo not shown) [Example 3-14, 4-methoxybenzyl 1-(7H-pyrrolo[2,3-d]pyrimidin-4-yl)octahydro-4H-pyrrolo[3,2-b]-pyridine-4-carboxylate]

Same assay, conditions: recombinant GST-tagged catalytic domain, 31.8 μM ATP, read-out: Representative IC50 values

IC50 [nM]	Structure (SMILES)
26	N#CCC(=O)N1CCCC2C1CCN2c1ncnc2[nH]ccc12 [Example 12, (3aS,7aS and 3aR,7aR) 3-oxo-3-[1-(7H-pyrrolo[2,3-d]pyrimidin-4-yl)octahydro-4H-pyrrolo[3,2-b]pyridin-4-yl]propanenitrile]
